Reference: paper PMC9945177, “Nature-Derived Epoxy Resin Monomers with Reduced Sensitizing Capacity—Isosorbide-Based Bis-Epoxides” (Chemical Research in Toxicology, 2023)

How the values were obtained:
[1] = skin permeability, static Franz diffusion cells; format: in vitro ADME, pig
Procedure: For the permeability experiments, ultra-performance liquid chromatography-electrospray ionization tandem mass spectroscopy (UPLC)-ESI-MS/MS analysis was carried out using a Xevo TQ-S micro triple quadrupole mass spectrometer equipped with an electrospray interface and coupled to an Acquity UPLC H-Class Plus system from Waters. Separation was achieved on an ACE Excel C18-PFP column (75 × 2.1 mm, 1.7 μm) from Advanced Chromatography Technologies Ltd. (Aberdeen, Scotland). Mobile phase A consisted of 0.1% formic acid and 5% acetonitrile in water, whereas mobile phase B consisted of 0.1% formic acid and 5% water in acetonitrile. The gradient program used was as follows: 20% B (0–2 min), 20–80% B (2–9 min), 80–95% B (9–9.1 min), 95% B (9.1–12 min), 95–20% B (12–12.1 min), 20% B (12.1–15 min). The flow rate was set to 0.3 mL/min and the injection volume was 2 μL. Analysis was performed in positive ionization mode using a Multiple Reaction Monitoring (MRM) method. The optimal parameters were capillary voltage 1.5 (kV), desolvation temperature 650 °C, desolvation gas 850 L/h, and cone 100 L/h.
The Franz diffusion cell experiment was based on the OECD Test Guidelines.[35] Static Franz diffusion cells equipped with pig ex vivo epidermis were used to assess the permeability of isosorbide bis-epoxides 2 and 3. Freshly cut pig ears were received frozen and stored at −20 °C until used for permeability assessment. One day before the experiment, the ears were transferred at +4 °C and allowed to thaw. The ears were then washed, shaved, and carefully cut with a Watson Dermatome skin graft knife to obtain 0.1 mm pieces of the epidermis layer. The integrity of the skin (transparent and intact) was determined by ocular inspection. Thereafter, the epidermis layer was cut and positioned between the donor and receptor compartment of each Franz cell. The receptor compartments were filled with 5 mL of ethanol/PBS (1:1) and equipped with a small magnetic stir bar to ensure mixing while maintaining a constant temperature of the circulating water at 37 °C. To equilibrate the skin, the upper chamber was filled with 0.5 mL of ethanol/PBS (1:1) which was later removed and replaced with the donor solution (50 μL) containing either 2 or 3 (0.1 mg/mL) or DGEBA (0.1 mg/mL) used as a positive control. A procedural blank containing only 50 μL of ethanol/PBS (1:1) in the donor compartment was also included in the experimental setup. Samples of 100 μL were collected after 0–2 min, 1, 2, 3, 4, 5, and 6 h. At each timepoint, a sample aliquot was removed and 100 μL of ethanol/PBS (1:1) was added to the receptor compartment to keep the volume constant. After 6 h, the skin from each Franz cell was extracted overnight in 5 mL of ethanol/PBS (1,1). Triplicate experiments were performed for each compound. The obtained samples were analyzed with UPLC-ESI-MS/MS (see Figure S2 for parameters) and quantification was based on external calibration curves. The limit of quantification (LOQ) was determined by the analysis of the analyte at low concentration and was calculated as 10 times the signal-to-noise ratio.

[2] = design: method as in Ponting et al. 26; settings: polymer, TGA under nitrogen; ref Ponting et al. 26; cited from earlier work
Female CBA/Ca mice = settings: cited from earlier work
guinea pig = settings: cited from earlier work
[3] = Extract: skin extracted overnight after 6 h

CC(C)(c1ccc(OCC2CO2)cc1)c1ccc(OCC2CO2)cc1 (stereo not drawn) [DGEBA, diglycidyl ether of bisphenol A, reference compound]
permeation of epidermis ([1]; 6 h experiment, donor 0.1 mg/mL): observed
Average (µM) [1, 3]: 0.206 µM
Average (µg/ml) [1, 3]: 0.0700 µg/mL
Replicate 1 [1, 3]: 0.0658 µg/mL
Replicate 2 (µg/ml) [1, 3]: < LOQ
Replicate 3 [1, 3]: 0.0742 µg/mL
recovery at 6 h, 0.1 mg/mL ([1]; pig, w/w %, sum of receptor compartment after 6 h and overnight skin extraction): 35%
Average (µM) ([1]; receptor fluid, timepoint 0 h): 0 µM
Average (µg/ml) ([1]; receptor fluid, timepoint 0 h): 0 µg/mL
Replicate 1 (µg/ml) ([1]; receptor fluid, timepoint 0 h): < LOQ
Replicate 2 (µg/ml) ([1]; receptor fluid, timepoint 0 h): < LOQ
Replicate 3 (µg/ml) ([1]; receptor fluid, timepoint 0 h): < LOQ
Average (µM) ([1]; receptor fluid, timepoint 1 h): 0 µM
Average (µg/ml) ([1]; receptor fluid, timepoint 1 h): 0 µg/mL
Replicate 1 (µg/ml) ([1]; receptor fluid, timepoint 1 h): < LOQ
Replicate 2 (µg/ml) ([1]; receptor fluid, timepoint 1 h): < LOQ
Replicate 3 (µg/ml) ([1]; receptor fluid, timepoint 1 h): < LOQ
Average (µM) ([1]; receptor fluid, timepoint 2 h): 0.595 µM
Average (µg/ml) ([1]; receptor fluid, timepoint 2 h): 0.203 µg/mL
Replicate 1 ([1]; receptor fluid, timepoint 2 h): 0.315 µg/mL
Replicate 2 ([1]; receptor fluid, timepoint 2 h): 0.184 µg/mL
Replicate 3 ([1]; receptor fluid, timepoint 2 h): 0.108 µg/mL
Average (µM) ([1]; receptor fluid, timepoint 3 h): 0.818 µM
Average (µg/ml) ([1]; receptor fluid, timepoint 3 h): 0.278 µg/mL
Replicate 1 ([1]; receptor fluid, timepoint 3 h): 0.419 µg/mL
Replicate 2 ([1]; receptor fluid, timepoint 3 h): 0.239 µg/mL
Replicate 3 ([1]; receptor fluid, timepoint 3 h): 0.177 µg/mL
Average (µM) ([1]; receptor fluid, timepoint 4 h): 0.868 µM
Average (µg/ml) ([1]; receptor fluid, timepoint 4 h): 0.296 µg/mL
Replicate 1 ([1]; receptor fluid, timepoint 4 h): 0.456 µg/mL
Replicate 2 ([1]; receptor fluid, timepoint 4 h): 0.229 µg/mL
Replicate 3 ([1]; receptor fluid, timepoint 4 h): 0.202 µg/mL
Average (µM) ([1]; receptor fluid, timepoint 5 h): 0.851 µM
Average (µg/ml) ([1]; receptor fluid, timepoint 5 h): 0.290 µg/mL
Replicate 1 ([1]; receptor fluid, timepoint 5 h): 0.436 µg/mL
Replicate 2 ([1]; receptor fluid, timepoint 5 h): 0.237 µg/mL
Replicate 3 ([1]; receptor fluid, timepoint 5 h): 0.196 µg/mL
Average (µM) ([1]; receptor fluid, timepoint 6 h): 0.817 µM
Average (µg/ml) ([1]; receptor fluid, timepoint 6 h): 0.278 µg/mL
Replicate 1 ([1]; receptor fluid, timepoint 6 h): 0.406 µg/mL
Replicate 2 ([1]; receptor fluid, timepoint 6 h): 0.218 µg/mL
Replicate 3 ([1]; receptor fluid, timepoint 6 h): 0.210 µg/mL
amount in receptor fluid after 6 h (%) ([1]; w/w %): 27.8 ± 9.0%
amount on/in skin (%) ([1]; w/w %, overnight skin extraction after 6 h): 7.0 ± 0.4%
recovery (%) ([1]; w/w %, sum of receptor compartment after 6 h and overnight skin extraction): 34.8 ± 9.4%
Ea (activation energy for the decomposition of the cured epoxy resins) [2]: 40.2 kcal/mol
IDT (initial decomposition temperature) [2]: 358 °C
Rmax (maximum weight loss rate) [2]: –2.17 %/°C
Tmax (temperature at the maximum rate of weight loss) [2]: 408 °C
EC3 (Female CBA/Ca mice): 0.036 M
skin sensitizer classification in guinea pig maximization test (guinea pig): strong
